We go through 2 compounds from patent publication US20240085425A1, “BIOMARKER AND APPLICATION THEREOF” (ADLAI NORTYE BIOPHARMA CO., LTD., priority 2022, published 2024).

Assay type in all cases: cell-based
The subject of experiment [1] is non-phosphorylated β-catenin. Kind of experiment: Western blot of non-phosphorylated β-catenin content in HepG2 cells. Particulars: overnight, read-out: Non-phosphorylated β-catenin content inhibition IC50. The source says: The Wnt signaling pathway is a key pathway for abnormal tumor growth. In colon cancer, liver cancer, pancreatic cancer and other cancers, a large number of patients have abnormal activation of the Wnt signaling pathway. The Wnt signaling pathway depends on the fine balance of β-catenin protein level. When Wnt signaling is not activated, β-catenin is phosphorylated by CK1 and APC/Axin/GSK-3β complexes, and the β-catenin protein is kept at a low level through ubiquitin-dependent proteasome degradation. When the Wnt signaling pathway is activated, β-catenin maintains a stable state of non-phosphorylation, and non-phosphorylated β-catenin can be transported into the nucleus through Rac1 and other factors, and plays a transcriptional regulatory role by binding to LEF/TCF transcription factors in the nucleus, activates downstream target genes such as C-myc and Cyclin D1, and promotes cell proliferation. Therefore, abnormal activation of the Wnt signaling pathway in tumor cells will lead to abnormal proliferation of tumors. […]
Add 500 μL of the compound with the highest concentration shown in FIG. 1 to each well of the 6-well cell culture plate, and make a 10-fold gradient dilution of the compound concentration. […] Load the protein sample directly to the SDS-PAGE gel for electrophoresis separation, transfer the protein on the SDS-PAGE gel to the PVDF membrane; after the transfer was completed, the protein was blocked by Western blocking solution, then Rabbit anti-β-catenin non-phospho S37/After T41 (ab278503) was added and the protein was incubated at room temperature for one hour and washed, the content of non-phosphorylated β-catenin was detected by incubation with Goat Anti-Rabbit IgG H&L (HRP) (ab6721). […]

The subject of experiment [2] is non-phosphorylated β-catenin. Kind of experiment: Western blot of non-phosphorylated β-catenin content in Colo205 cells. Particulars: for Effect on content of non-phosphorylated β-catenin (active β-catenin), in words: FIG. 1; for IC50: overnight, Western blot, read-out: Non-phosphorylated β-catenin content inhibition IC50. The source says:
The Wnt signaling pathway is a key pathway for abnormal tumor growth. In colon cancer, liver cancer, pancreatic cancer and other cancers, a large number of patients have abnormal activation of the Wnt signaling pathway. The Wnt signaling pathway depends on the fine balance of β-catenin protein level. When Wnt signaling is not activated, β-catenin is phosphorylated by CK1 and APC/Axin/GSK-3β complexes, and the β-catenin protein is kept at a low level through ubiquitin-dependent proteasome degradation. When the Wnt signaling pathway is activated, β-catenin maintains a stable state of non-phosphorylation, and non-phosphorylated β-catenin can be transported into the nucleus through Rac1 and other factors, and plays a transcriptional regulatory role by binding to LEF/TCF transcription factors in the nucleus, activates downstream target genes such as C-myc and Cyclin D1, and promotes cell proliferation. Therefore, abnormal activation of the Wnt signaling pathway in tumor cells will lead to abnormal proliferation of tumors. In order to explore the inhibitory mechanism of the compound on the proliferation of tumor cell lines, the compound AN10250399, AN10250421 or AN10250484 was used to treat sensitive cells Colo205, DU4475 and HepG2, and Western blot was used to detect the content of non-phosphorylated β-catenin in the Wnt pathway to clarify the effect of the compound on content of the non-phosphorylated β-catenin.
Add 500 μL of the compound with the highest concentration shown in FIG. 1 to each well of the 6-well cell culture plate, and make a 10-fold gradient dilution of the compound concentration. Then 500 μL of 10^6 Colo205, DU4475 and HepG2 or 500 μL of medium were inoculated into each well, and corresponding solvent treatment was performed simultaneously as negative control wells. The cells were placed in a 5% CO2 cell incubator, cultured overnight at 37° C. The culture medium was removed, washed once with PBS, 200 μL of RIPA buffer containing protease inhibitors was added to each well, and the protein lysate was collected after lysing on ice for 20 min. Add an appropriate amount of concentrated SDS-PAGE protein loading buffer to the collected protein lysate samples, and heat at 100° C. or in a boiling water bath for 3-5 minutes to fully denature the protein. Load the protein sample directly to the SDS-PAGE gel for electrophoresis separation, transfer the protein on the SDS-PAGE gel to the PVDF membrane; after the transfer was completed, the protein was blocked by Western blocking solution, then Rabbit anti-β-catenin non-phospho S37/After T41 (ab278503) was added and the protein was incubated at room temperature for one hour and washed, the content of non-phosphorylated β-catenin was detected by incubation with Goat Anti-Rabbit IgG H&L (HRP) (ab6721). As a control, glyceraldehyde-3-phosphate dehydrogenase (GAPDH) was used as an internal standard protein

Another experiment concerns SW48. Kind of experiment: Tumor cell proliferation inhibition (Promega cell viability, 72 h). Particulars: Homo sapiens, SW48 cells, read-out: Anti-proliferation IC50. As to the method:
(§1) The cell lines used in the experiment are various tumor cells, including DU4475, Colo205, HepG2, PLC/PRF/5, BT-20, LS174T, NCI-H929, HCT116, SW620, SK-CO-1, SW480, DLD1, HT-29, SW900, SW1417, HuH7, H2009, PANC-1, SW48, Duadi, H358, HCT15, 22Rv1, Hela, RKO, Raji, Jurkat, NCI-H716, MDA-MB-231, NCI-H157 and THP1, and the inhibitory effect of the compound of the present disclosure on the proliferation of these tumor cells is determined, in order to screen out sensitive cell types of the compound of the present disclosure.
(§2) DU4475, Colo205, HepG2, PLC/PRF/5, BT-20, LS174T, NCI-H929, HCT116, SW620, SK-CO-1, SW480, DLD1, HT-29, SW900, SW1417, HuH7, H2009, PANC-1, SW48, Duadi, H358, HCT15, 22Rv1, Hela, RKO, Raji, Jurkat, NCI-H716, MDA-MB-231, NCI-H157 and THP1 cell lines cultured in each medium were treated during the logarithmic growth phase, and the cells were collected and prepared into a uniform cell suspension of known concentration, and then added to the 96-well cell culture plate to make each well contain 1000 cells. Put it into a 5% CO2 incubator and incubate at 37° C. for 20-24 h. The next day, the fully dissolved 3-fold gradient diluted compound was added to each cell culture well, so that the final maximum concentration in the cell culture well was 20 μM, and the culture was continued for 72 hours. In this test, Promega's cell viability detection test is used for detection. The more the cells proliferate, the stronger the final signal intensity will be. The detection instrument is SpectraMax, full wavelength mode. The wells with only DMSO added were used as positive control wells, and the wells without cells inoculated were used as negative control wells. The IC50 value of each compound for different cell proliferation inhibition was calculated to evaluate the inhibitory effect of the compound on different tumor cells.

For another experiment, the system named is NCI-H157. The experiment is described as above. As to conditions: Homo sapiens, NCI-H157 cells, read-out: Anti-proliferation IC50. How it is done:
as §1, §2

The next experiment has as its system SW620. The description is as above. As to conditions: Homo sapiens, SW-620, SW620 cells, read-out: Anti-proliferation IC50. As to the method:
as §1, §2

A further experiment deals with HCT15. Described as above. Particulars: Homo sapiens, HCT-15, HCT15 cells, read-out: Anti-proliferation IC50. As to the method: as §1, §2
For another experiment, the system named is BT-20. The experiment is described as above. As to conditions: Homo sapiens, BT-20 cells, read-out: Anti-proliferation IC50. As to the method: as §1, §2
The test system of the next experiment is SK-CO-1. The description is as above. Particulars: Homo sapiens, SK-CO-1 cells, read-out: Anti-proliferation IC50. How it is done:
as §1, §2

A further experiment deals with HepG2. The experiment is described as above. As to conditions: Homo sapiens, HepG2 cells, read-out: Anti-proliferation IC50. How it is done:
as §1, §2

Another experiment has as its system SW480. The description is as above. Particulars: Homo sapiens, SW480 cells, read-out: Anti-proliferation IC50. How it is done:
as §1, §2

The next experiment deals with Colo205. Described as above. As to conditions: Homo sapiens, COLO 205, Colo205 cells, read-out: Anti-proliferation IC50. As to the method: as §1, §2
The subject of a further experiment is Jurkat. The description is as above. Particulars: Homo sapiens, Jurkat cells, read-out: Anti-proliferation IC50. How it is done: as §1, §2
The test system of another experiment is PLC/PRF/5. Described as above. As to conditions: Homo sapiens, PLC/PRF/5 cells, read-out: Anti-proliferation IC50. As to the method:
as §1, §2

Molecules are shown by their SMILES.

For the compound `[2H]C([2H])([2H])N1c2nc(NCc3ccc(Oc4cnc(C(F)(F)F)nc4)nc3)nc3c2N(CCC3)C(=O)[C@]1(C)CO` [AN10250399], the IC50 was 4 nM in [1]; 22 nM in experiment [2]; over 10000 nM with SW48; over 10000 nM with NCI-H157; 100 nM in the experiment on SW620; over 10000 nM with HCT15. Also, the IC50 is 135 nM with BT-20; 341 nM with SK-CO-1; 128 nM in the experiment on HepG2; 300 nM in the experiment on SW480; 43 nM in the experiment with Colo205; over 10000 nM in the experiment with Jurkat. For the same compound, in the experiment with PLC/PRF/5, the IC50 came to 62.6 nM. In experiment [2], the “Effect on content of non-phosphorylated β-catenin (active β-catenin), in words” value was “decrease the content of non-phosphorylated β-catenin”.
In the case of `Cc1nc(C(F)(F)F)ncc1Oc1ccc(CNc2nc(C)c3c(n2)N(C)[C@@H](C)C(=O)N3)cn1` [AN10250484], the IC50 in experiment [1] was 5.9 nM; in experiment [2] it was 10 nM; in the experiment on SW48, over 10000 nM; in the experiment on NCI-H157, over 10000 nM; in the experiment with SW620 it was 284 nM; in the experiment with HCT15, over 10000 nM. The IC50 with BT-20 is 22 nM; in the experiment on SK-CO-1 it was 285 nM; with HepG2 it was 11 nM; in the experiment with SW480, 300 nM; with Colo205, 9 nM; with Jurkat it was over 10000 nM. Further, the IC50 with PLC/PRF/5 turned out to be 18 nM. For the same compound, the “Effect on content of non-phosphorylated β-catenin (active β-catenin), in words” value in experiment [2] is on record as “decrease the content of non-phosphorylated β-catenin”.
